Where a name gives a salt, the structure may show the parent alone. Values belong to the compound of their own block, whether it stands above or below them.
Legend:
[1] = Solubility in aqueous solvents, buffers and cell-culture medium; type: physicochemical; details: neat water or saline, PBS, DMEM with 10% FBS; read-out: soluble at a concentration
[2] = In vitro stability (photostability) in solution, kinetic fluorescence; type: physicochemical; details: phosphate buffer, 100 nM, 37° C., ex 490 nm / em 520 nm
Procedure: HYPDX-4 was dissolved in phosphate buffer at a concentration of 100 nM and fluorescence was monitored at excitation maximum 490 nm and emission at 520 nm.

R28 cells [3] = experiment: In vitro hypoxia-induced HYPDX-4-dependent fluorescence assay, R28 cells; type: cell-based, rat
Procedure: (§1) ARPE-19 cells were cultured in DMEM/F12 supplemented with 10% Fetal Bovine Serum, 1× GlutaMAX, and 1× Gentamicin/Amphotericin B. MIO-M1 and R28 cells were cultured in low glucose DMEM supplemented with 10% Fetal Bovine Serum, 1× GlutaMAX, and 1× Penicillin-Streptomycin. Cells were maintained in a humidified environment with 5% CO2 at 37° C. unless otherwise noted. The cells were cultured in 96 microwell plates, with HYPDX-4 concentrations ranging from 10 to 100 μM in complete medium, or 100 μM pimonidazole hydrochloride in complete medium. To establish a hypoxic environment, the cells were placed into a humidified hypoxic chamber and flushed with a mixture of 95% N2 and 5% CO2, at a flow rate of 20 L/min for 5 min according to manufacturer instructions. The chamber was clamped and placed at 37° C. for the duration of the treatment. The oxygen level was monitored using the Traceable™ Dissolved Oxygen Meter Pen (Fisher Scientific; Pittsburg, Pa.). […]
(§2) ARPE-19, MIO-M1 were seeded at 20,000 and R28 at 15,000 cells per well, respectively, in a 96-well black plate with a clear bottom. […] Fluorescence intensity was measured ([…]: 490 nm, Emission: 520 nm) using a microplate reader (Biotek; Winooski, Vt.).

ARPE-19 cells = experiment: In vitro hypoxia-induced HYPDX-4-dependent fluorescence assay, ARPE-19 cells; type: cell-based, human; details: ARPE-19, 0.1% oxygen, 10 μM to 100 μM
Procedure: as §1, §2

MIO-M1 cells [4] = experiment: In vitro hypoxia-induced HYPDX-4-dependent fluorescence assay, MIO-M1 cells; type: cell-based, human; details: MIO-M1, 0.1% oxygen, 10 μM to 100 μM
Procedure: as §1, §2

R28 cells [5] = experiment: In vitro imaging of R28 cells using HYPDX-4; type: cell-based, rat
Procedure: R28 cells were seeded at a density of 45,000 cells per well in 3 wells of 4-well chamber slides. When cells were 90% confluent, 2 wells were treated with HYPDX-4 in complete medium, and one well was treated with pimonidazole hydrochloride diluted in complete medium. The cells were cultured in hypoxia or normoxia for 4 hours. Cells were washed 3 times with HBSS, fixed with 10% neutral buffered formalin (NBF) for 10 minutes at room temperature, washed 3 times with TBS and mounted with Prolong Gold with DAPI mounting media. Pimonidazole-adducts were immunostained according to manufacturer's protocol. HYPDX-4 dependent fluorescence images were taken using an epifluorescence microscope.

[6] = test system: retinal hypoxia, oxygen-induced retinopathy (OIR) mice; experiment: Imaging of retinal hypoxia in the mouse OIR model; type: in vivo
Procedure: Mouse pups and their dams were placed in 75% oxygen from P7 to P12 according to the OIR oxygen treatment protocol.^27 On P12, litters were removed to room air and after 2 hours, HYPDX-4 (60 mg/kg in PBS) was administered by intraperitoneal injection. Twenty-four hours post-injection, in vivo HYPDX-4-dependent fluorescence imaging was performed. Briefly, mice were anesthetized with ketamine/xylazine, eyes were dilated with 1% tropicamide and placed on a warm platform, and fluorescent and bright field fundus images were acquired using the Micron IV retinal-imaging system (Phoenix Research Laboratories; Pleasanton, Calif.). Then, ex vivo imaging of HYPDX-4 dependent fluorescence was performed. The mice were sacrificed, enucleated, and the globes were fixed in 10% neutral buffered formalin (NBF). Retinas were dissected and stained directly with Alexa Fluor 647-conjugated isolectin B4 then flat-mounted on a microscope slide with Prolong Gold mounting medium (Life Technologies, Grand Island, N.Y.). Images were captured using an epifluorescence ‘Nikon Eclipse Ti-E’ inverted microscope (Melville, N.Y.).
Some mice received intraperitoneal injections of pimonidazole hydrochloride at a concentration of 60 mg/kg body weight two hours after removal to the room air; they were sacrificed and enucleated one hour later. The globes were fixed in 10% NBF for 2 hours; retinas were dissected and washed with tris-buffered saline (TBS), then they were blocked/permeabilized in 10% donkey serum with 1% Triton X-100/0.05% Tween 20 in TBS for 6 hours, and stained with an antibody against pimonidazole-adducts followed by the secondary anti-rabbit IgG conjugated to Alexa Fluor 647- and Alexa Fluor 488-conjugated isolectin B4. The retinas were mounted on microscope slides with Prolong Gold mounting medium. Ex vivo images were captured using an epifluorescence ‘Nikon Eclipse Ti-E’ inverted microscope.

[7] = test system: retinal hypoxia, laser-induced retinal vein occlusion (RVO) mice; experiment: Imaging of retinal hypoxia in the mouse RVO model; type: in vivo; details: for pattern of retinal hypoxia image in RVO retina: HYPDX-4-dependent imaging versus pimonidazole-adduct immunostaining, 60 mg/kg i.p.
Procedure: Laser-induced retinal vein occlusion was performed as previously described.^31 Briefly, C57BL/6 female mice were anesthetized by intraperitoneal injection of ketamine/xylazine and the eyes were dilated using 1% tropicamide. A phosphate buffered solution of 39.31 mM rose bengal (4,5,6,7-tetrachloro-2′,4′,5′,7′-tetraiodo-fluorescein disodium salt, certified purity, 95%; Sigma, St. Louis, Mo.) was sterilized by passage through a 0.22-μm filter, and tail vein injected at a dose of 40 mg/kg. An argon laser photocoagulator (green light) mounted on a slit-lamp (Space Coast Laser Inc. Palm Bay, Fla.) was used to create retinal vein-occlusion (50-μm spot size, 1-second duration, 50 mW). Three laser applications were required to completely stop the blood flow as determined by observing the fundus image with a slit-lamp microscope. In each fundus, only one or two veins was/were photocoagulated to create retinal ischemia. Two hours post-RVO, mice were divided into two groups and received intraperitoneal injection of the HYPDX-4 (60 mg/kg body weight) or pimonidazole hydrochloride (60 mg/kg body weight). Twenty-two hours post-injection of HYPDX-4, in vivo HYPDX-4 dependent fluorescence imaging was performed. The mice were anesthetized with ketamine/xylazine, dilated with 1% tropicamide, and placed on a warm platform; TRITC-Dextran 500 (Sigma, St. Louis, Mo.) was injected systemically at a dose of 20 mg/kg; and fluorescent and bright field fundus images were acquired using the Micron IV retinal-imaging system. Mice were sacrificed, enucleated and the globes were fixed in 10% NBF. HYPDX-4-dependent fluorescence was imaged ex vivo as previously described in the OIR section. For the pimonidazole hydrochloride-injected group, the animals were sacrificed one hour after injection, enucleated and the globes were fixed in 10% NBF. The retinas were processes and ex vivo images were captured as described above for mouse OIR.

retina of RA mice = experiment: Electroretinography (ERG) measurements; type: in vivo, mouse; details: 100 mg/kg systemic, dark-adapted mice, 7 days post administration, various flash intensities
Procedure: ERG measurements were performed according to previously published methods.^32,33 Briefly, ERG analysis was performed on mice injected with HYPDX-4 (100 mg/kg) at one week post-injection. Animals were dark adapted overnight, anesthetized with ketamine/xylazine, dilated with 1% tropicamide, and placed on a warm platform within the Ganzfeld dome of a Diagnosys LLC Espion Electrophysiology system (Lowell, Mass., USA). Mice were exposed to flashes of light ranging from −4 to 2 log cd·s/m^2 and the amplitudes of a-wave and b-wave were measured from baseline to peak. The amplitude of the a-wave and b-wave were plotted as a function of luminance.

[8] = test system: retinal cross sections from RA mice; experiment: TUNEL assay in retinal cross sections; type: in vivo, mouse; details: retinal cross sections from treated mice, DNase I positive control
Procedure: TUNEL assays were performed using Click-iT in situ apoptosis detection kit (Life Technology, USA). The mouse eyes were enucleated and fixed by immersing in 10% NBF for 25 minutes at 4° C. Then, they were fresh frozen in 30% sucrose and embedded in TissueTec OCT for cryosectioning (7 μm sections). The retinal cross-sections were then stained for fragmented DNA by incorporating alkyne-modified EdUTP nucleotide followed by detection with Alexafluor 647 azide in apoptotic cells. Retinal cross-sections were treated with DNase I as the positive control.

R28 cells [9] = experiment: Cell viability assay (BrdU incorporation), R28 cells; type: cell-based, rat; details: R28, 0-100 μM, 24 h
Procedure: (§3) Retinal cell-lines were treated with HYPDX-4 (100 μM) and the viability was measured using the bromodeoxyUridine (BrdU) incorporation assay according to the manufacturers protocol. Briefly, retinal cells were seeded in a 96-well plate for twenty four hours and serum starved for 6 hours. Then, cells were treated with HYPDX-4 and vehicle controls diluted in complete media and allowed to incubate for 24 h. Four hours prior to the end of the incubation, BrdU was added at a concentration of 10 μM and incorporation of BrdU was quantified by ELISA with the BrdU cell viability ELISA kit (Exalpha Biologicals; Shirley, Mass.).

MIO-M1 cells [10] = experiment: Cell viability assay (BrdU incorporation), MIO-M1 cells; type: cell-based, human; details: MIO-M1, 0-100 μM, 24 h
Procedure: as §3

[11] = test system: human Müller cells (MIO-M1); experiment: Pimonidazole-adduct immunodetection of hypoxia in MIO-M1 cells; type: cell-based; details: MIO-M1, 100 μM, 4 hours
Procedure: ARPE-19 cells were cultured in DMEM/F12 supplemented with 10% Fetal Bovine Serum, 1× GlutaMAX, and 1× Gentamicin/Amphotericin B. MIO-M1 and R28 cells were cultured in low glucose DMEM supplemented with 10% Fetal Bovine Serum, 1× GlutaMAX, and 1× Penicillin-Streptomycin. Cells were maintained in a humidified environment with 5% CO2 at 37° C. unless otherwise noted. The cells were cultured in 96 microwell plates, with HYPDX-4 concentrations ranging from 10 to 100 μM in complete medium, or 100 μM pimonidazole hydrochloride in complete medium. To establish a hypoxic environment, the cells were placed into a humidified hypoxic chamber and flushed with a mixture of 95% N2 and 5% CO2, at a flow rate of 20 L/min for 5 min according to manufacturer instructions. The chamber was clamped and placed at 37° C. for the duration of the treatment. The oxygen level was monitored using the Traceable™ Dissolved Oxygen Meter Pen (Fisher Scientific; Pittsburg, Pa.). To confirm induction of hypoxia, cells were treated with 100 μM pimonidazole hydrochloride diluted in complete medium, subjected to hypoxia or normoxia for 4 hours and immunostained for pimonidazole-adducts according to manufacturer's protocol.

Procedure for physchem: A mixture of Octanol (500 uL) and water (500 uL) was added to HYPDX-4 (173 μg), or Pimonidazole Free base (742 μg) or Pimonidazole HCl (1 mL, 50 mg/mL) in an eppendorf tube and gently mixed in a rotator for 2 days. The aqueous and octanol layers were separated and the Optical Density (OD) was measured in microplate spectrophotometer instrument. The amount of HYPDX-4, Pimonidazole Free base and Pimonidazole HCl was calculated from the standard curve.

solubility [1]: ≥ 100 µM | photostability in solution, duration [2]: at least 24 hours | logP at 2 days (physchem): -2.58
Structure (SMILES): CCN1/C(=C/C=C/C=C/C2=[N+](CCCCS(=O)(=O)[O-])c3ccc4ccccc4c3C2(C)C)C(C)(C)c2cc(CC(=O)NCC3CCN(CC(O)Cn4ccnc4[N+](=O)[O-])CC3)ccc21 (stereo not drawn) [HYPDX-4]
HYPDX-4-dependent fluorescence versus oxygen concentration (R28 cells [3]; 100 μM, oxygen 0.1% to 20.9%, 4 hours): maximal at 0.1% oxygen | HYPDX-4 dependent fluorescence, dose dependence (R28 cells [3]; R28, 0.1% oxygen, 10 μM to 100 μM): optimal signal to noise ratios at the 100 μM dose | HYPDX-4 dependent fluorescence, dose dependence (ARPE-19 cells): optimal signal to noise ratios at the 100 μM dose | HYPDX-4 dependent fluorescence, dose dependence (MIO-M1 cells [4]): optimal signal to noise ratios at the 100 μM dose | cellular fluorescence imaging, hypoxic cells (R28 cells [5]; R28, 100 μM, 0.1% oxygen, 4 hours): Hypoxia-specific, HYPDX-4-dependent fluorescence activity | cellular fluorescence imaging, normoxic cells (R28 cells [5]; R28, normoxia): Minimal | HYPDX-4-dependent fluorescence in OIR retina ([6]; OIR pups, 60 mg/kg i.p. on P12, imaging 24 hours post-injection, central avascular retina): detected in vivo as well as ex vivo | HYPDX-4 dependent fluorescence in room air control retina ([6]; age matched RA (P13) control pups, same treatment): undetectable | retinal layers showing HYPDX-4-dependent fluorescence (hypoxia), cross sections ([6]; ex vivo retinal transverse sections from OIR pups): inner plexiform and inner nuclear layers | HYPDX-4-dependent fluorescence in RVO retina ([7]; 60 mg/kg i.p. two hours after occlusion, imaging 22 hours post-injection): detected downstream and laterally from the occlusion | pattern of retinal hypoxia image in RVO retina [7]: more confluent image of retinal hypoxia | ERG mean a-wave amplitudes versus vehicle (PBS) and sodium fluorescein (retina of RA mice): no significant changes in mean a-wave amplitudes | ERG mean b-wave amplitudes versus vehicle (PBS) and sodium fluorescein (retina of RA mice): no significant changes in mean b-wave amplitudes | retinal cell apoptosis (TUNEL) [8]: No apoptosis was observed | cell viability (BrdU incorporation) (R28 cells [9]): did not affect cell viability | cell viability (BrdU incorporation) (MIO-M1 cells [10]): did not affect cell viability

logP at 2 days (physchem): -2.06
Structure (SMILES): O=[N+]([O-])c1nccn1CC(O)CN1CCCCC1 (stereo not drawn) [Pimonidazole HCl, reference compound]
pimonidazole immunostaining of retinal hypoxia in OIR pups ([6]; 60 mg/kg i.p., ex vivo, sacrificed one hour later): confirmed | pattern of retinal hypoxia image in RVO retina [7]: patchy | pimonidazole-adduct fluorescence, hypoxic cells ([11]; hypoxia): Significant fluorescence enhancement | pimonidazole-adduct fluorescence, normoxic cells ([11]; normoxia): minimal fluorescence signal
